Patent publication USRE33906E, “Cyclic carboxamide derivatives and their use as analgesics” (Dr.Lo.Zambeletti S.p.A., priority 1985, dated 1992)
Counter-ions that a name gives are not always drawn. Like-named read-outs stand apart in the source and are kept apart here.

Experiments:
[1] = system: mice (reaction time under heat source); experiment: Mouse Tail-flick test; assay type: in vivo, mouse (Male Charles River); settings: sc, 0.5 h; for responders at 1 mg/kg: 1 mg Kg^-1, Table 3, read-out: Mouse tail flick % Protection
Procedure: Mouse Tail-flick test (Modified from the procedure published by D'Amour et al., J. Pharm. Exptl. Ther. 72, 74/1941)
Male Charles River mice, average weight 26 g, are used. Selection is carried out before beginning of experiments: only mice whose reaction time is less than 8 sec are used. They are randomly distributed into groups of 10 and dosed with compounds under test, with positive and negative controls being included.
Compounds under test are administered subcutaneously in isotonic saline in a volume of 20 ml. Kg^-1. 30 min later mice are placed again under heat source (Socrel apparatus) and reaction time is recorded.
The analgestic activity of the test compound is expressed as the percent number of mice doubling the initial time within a group. [formula]

[2] = target: T1, K receptor (Kappa opioid receptor) (Cavia porcellus, UniProt P41144); experiment: Radio receptor binding to K sites (tritiated Ethylketocyclazocine); set-up: species or system guinea pig; settings: for remaining activity at 1 µM: 40 min, 10^-6 M, read-out: Opiate receptor binding K, % residual specific binding at 10^-6 M
T1 construct: fresh guinea pig brain homogenate; from tissue; host or cells: guinea pig whole brain without cerebellum, homogenate
Procedure: (§1) RECEPTOR AFFINITY STUDY Tissue preparation
(§2) Radio receptor binding to μ and K sites is performed on fresh guinea pig brain homogenate prepared according to Kosterlitz (1981).
(§3) Whole brain without cerebellum is homogenized in 50 mM, Tris-buffer (pH 7.4 at 0° C.) and centrifuged at 49,000×g×10 min.
(§4) The pellet is then resuspended in the same buffer, incubated at 37° C. for 45 min. and centrifuged again.
(§5) 1.9 ml of the final homogenate (1:100 in Tris-pH 7.4, 0° C.) is used for the binding assay.
Binding to K sites (Magnan J., 1982)
The binding of tritiated Ethylketocyclazocine to brain homogenate is measured the in presence of 100 nanomolar D-Ala-D-LeuEnkephalin (DADLE) and 100 nanomolar DAGO, added to saturate the δ and μ opioid receptors respectively.
Final homogenate with solutions of the cold ligand and of the labelled ligand is incubated for 40 min. at 25° C., filtered through Whatman GF/C glass filter discs and washed.
The radioactivity bound to the filters is counted by liquid scintillation spectrophotometry.
MR 2266.500 nM is utilized to determine the saturable binding.
(§6) For the calculation of the kinetic parameters of the binding of labelled and unlabelled ligands, the equilibrium dissociation constant (KD), the inhibition constant (Ki) and the maximum number of binding sites (B max) are determined from saturation curves and competition experiments (Hill 1910; Scatchard 1949; Cheng and Prusoff 1973; Gillan et al. 1980).
(§7) A concentration of radioligand near KD is used in the binding assays evaluating our compounds.

[3] = system: mice (p-phenylquinone writhing); experiment: Mouse p-phenylquinone Writhing test; assay type: in vivo, mouse (Male Charles River); settings: sc, Table 2
Procedure: Mouse p-phenylquinone Writhing test (According to Siegmund et al., Proc. Soc. Exptl. Biol. 95, 729/1957)
Male Charles River mice, average weight 26 g, are randomly distributed into group of 10 and are dosed subcutaneously with compounds under test, dissolved in isotonic saline (20 ml.Kg^-1). The experiments are carried out in the presence of positive and negative controls. 20 min after the mince are injected intraperitoneally with p-phenylquinone 0.02%, 10 ml. Kg^-1, maintained at 37° C. in a water bath. The mice are placed in a perspex compartmented observation box and observed for a period of 8 min after injection of p-phenylquinone. The dose-response curve is obtained by basing observation on the all or none response.

μ receptor = μ receptor (Cavia porcellus, UniProt A0ACM8Q262); experiment: Radio receptor binding to μ sites (3H-DAGO)
Procedure: as §1, §2, §3, §4, §5
Binding to μ sites (Magnan J., 1982)
^3 H [D-Ala^2, MePhe^4, Gly-ol^5 ] Enkephalin (^3 H-DAGO), an enkephalin analogue that binds selectively to μ receptor, is added to the biological substrate and incubated at 25° C. for 40 min., filtered through Whatman GF-C and washed with ice-cold Tris-buffer.
The filters are then dryed, solubilized in Filtercount and the radioactivity monitored. Non specific binding is determined in the presence of 10^-6 M Naloxone.
as §6, §7

[4] = system: mice (reaction time under heat source); experiment: Mouse Tail-flick test; assay type: in vivo, mouse (Male Charles River); settings: oral (os), Table 3
[5] = s.c., 30 min after dosing, Table 2, read-out: Mouse tail flick ED50
[6] = read-out: Receptor binding μ Ki, guinea pig brain homogenate, Table 2
[7] = guinea pig brain homogenate, Table 3
[8] = subcutaneous, Table 3, read-out: Mouse tail flick subcutaneous ED50

Chain of μ receptor (A0ACM8Q262 1-400): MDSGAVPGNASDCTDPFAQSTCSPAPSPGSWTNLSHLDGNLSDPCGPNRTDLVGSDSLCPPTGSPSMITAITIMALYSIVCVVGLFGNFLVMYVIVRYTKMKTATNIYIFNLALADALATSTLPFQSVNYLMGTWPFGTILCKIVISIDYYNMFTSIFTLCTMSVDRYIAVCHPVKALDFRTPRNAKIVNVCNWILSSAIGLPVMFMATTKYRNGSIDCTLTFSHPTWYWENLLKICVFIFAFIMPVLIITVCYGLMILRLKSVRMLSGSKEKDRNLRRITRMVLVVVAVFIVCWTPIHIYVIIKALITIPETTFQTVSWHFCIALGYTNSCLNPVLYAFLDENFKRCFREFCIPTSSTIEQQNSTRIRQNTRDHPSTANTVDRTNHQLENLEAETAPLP
T1 sequence (P41144 whole entry): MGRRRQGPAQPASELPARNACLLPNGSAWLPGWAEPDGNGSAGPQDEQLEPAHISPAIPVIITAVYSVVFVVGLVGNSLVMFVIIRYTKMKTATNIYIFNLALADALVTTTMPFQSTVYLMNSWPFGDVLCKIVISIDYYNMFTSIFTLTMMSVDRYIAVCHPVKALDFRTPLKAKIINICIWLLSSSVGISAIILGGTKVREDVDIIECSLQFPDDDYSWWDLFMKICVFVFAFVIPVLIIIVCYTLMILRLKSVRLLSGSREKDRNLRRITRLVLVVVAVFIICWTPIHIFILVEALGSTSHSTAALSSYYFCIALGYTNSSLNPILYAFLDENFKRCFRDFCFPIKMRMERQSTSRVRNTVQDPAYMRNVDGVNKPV

Row | SMILES | responders at 1 mg/kg ([1]; subcutaneous) [%] | ED50 [3] [mg/kg] | ED50 [1, 5] [mg/kg] | Ki [2] [nM] | remaining activity at 1 µM [2, 7] [%] | other results
1 | CCC(C(=O)N1CCCCC1CN1CCCC1)c1ccccc1 (single isomer, unassigned; isomer b) [Example 16, 1-(2-phenylbutyroil)-2-(1pyrrolidinylmethyl) piperidine hydrochloride. Isomer B] | 40 | – | – | – | – | –
2 | O=C(Cc1ccc(Cl)c(Cl)c1)N1CCCCC1CN1CCCC1 (centres unmarked) [Example 1, 1-(3,4-dichlorophenyl)acetyl-2-(1-pyrrolidinyl)methyl piperidine hydrochloride] | – | 0.2 | 0.11 | – | – | Ki ([2]; guinea pig brain homogenate, tritiated Ethylketocyclazocine with DADLE and DAGO 100 nM each, Table 2, read-out: Receptor binding K Ki): 1.83 nM; Ki (μ receptor; [6]): 1860 nM
3 | CN(C)CC1CCCCN1C(=O)Cc1ccc(Cl)c(Cl)c1 (centres unmarked) [Example 2, 1-(3,4-dichlorophenyl)acetyl-2-dimethylaminomethyl piperidine hydrochloride] | – | 0.65 | 0.36 | 8.21 | – | Ki (μ receptor; guinea pig brain homogenate, Table 2, read-out: Receptor binding μ Ki): 3730 nM
4 | O=C(Cc1ccc(Cl)c(Cl)c1)N1CCCC[C@@H]1CN1CCCC1 [Example 3, (2R)-1-(3,4-dichlorophenylacetyl)-2-(1-pyrrolidinylmethyl)piperidine hydrochloride hydrate] | – | 12.4 | 17.5 | 62.1 | – | Ki (μ receptor; [6]): 7110 nM
5 | O=C(Cc1ccc(Cl)c(Cl)c1)N1CCCC[C@H]1CN1CCCC1 [Example 4, (2S)-1-(3,4-dichlorophenylacetyl)-2-(1-pyrrolidinylmethyl)piperidine hydrochloride hydrate] | – | 0.12 | 0.055 | 0.77 | – | Ki (μ receptor; [6]): 1560 nM
6 | CN(C)C[C@@H]1CCCCN1C(=O)Cc1ccc(Cl)c(Cl)c1 [Example 5, (2S)-1-(3,4-dichlorophenylacetyl)-2-dimethylamino methylpiperidine sesquihydrate] | – | 0.44 | 1.03 | 5.01 | – | Ki (μ receptor; [6]): > 1 nM
7 | O=C(Cc1ccc(Cl)c(Cl)c1)N1CCCCCC1CN1CCCC1 (centres unmarked) [Example 8, 1-(3,4-dichlorophenylacetyl)-2-(1-pyrrolidinylmethyl)-hexahydroazepine hydrochloride] | – | – | 8.76 | 6.51 | – | –
8 | O=C(Cc1ccccc1)N1CCCCC1CN1CCCC1 (centres unmarked) [Example 10, 1-phenylacetyl-2-(1-pyrrolidinylmethyl)piperidine hydrochloride] | 40 | – | – | – | 100 | –
9 | Cc1ccc(CC(=O)N2CCCCC2CN2CCCC2)cc1C (centres unmarked) [Example 11, 1-(3,4-dimethylphenylacetyl)-2-(1-pyrrolidinylmethyl) piperidine hydrochloride] | 60 | – | – | – | 67 | –
10 | O=C(Cc1ccc2c(c1)CCC2)N1CCCCC1CN1CCCC1 (centres unmarked) [Example 12, 1-(5-indaneacetyl)-2-(1-pyrrolidinylmethyl)piperidine hydrochloride] | 60 | – | – | – | 62 | –
11 | O=C(Cc1ccc2c(c1)CCCC2)N1CCCCC1CN1CCCC1 (centres unmarked) [Example 13, 1-(6-tetralylacetyl)-2-(1-pyrrolidinylmethyl)piperidine hydrochloride] | 80 | – | – | – | – | ED50 [4]: 3.91 mg/kg; Ki ([2]; guinea pig brain homogenate, tritiated Ethylketocyclazocine, Table 3, read-out: Opiate receptor binding K Ki): 5.72 nM; ED50 [1, 8]: 45 mg/kg; Ki (μ receptor; read-out: Opiate receptor binding μ Ki, guinea pig brain homogenate, Table 3): 500 nM
12 | O=C(Cc1ccc(Cl)cc1)N1CCCCC1CN1CCCC1 (centres unmarked) [Example 14, 1-(4-chlorophenylacetyl)-2-(1-pyrrolidinylmethyl) piperidine hydrochloride] | 40 | – | – | – | 61 | –
13 | COc1ccc(CC(=O)N2CCCCC2CN2CCCC2)cc1OC (centres unmarked) [Example 15, 1-(3-4-dimethoxyphenylacetyl)-2-(1-pyrrolidinylmethyl) piperidine hydrochloride] | 40 | – | – | – | 100 | –
14 | O=C(COc1ccc(Cl)cc1)N1CCCCC1CN1CCCC1 (centres unmarked) [Example 17, 1-(4-chlorophenoxyacetyl)-2-(1-pyrrolidinylmethyl) piperidine hydrochloride] | 80 | – | – | 9.54 | – | ED50 [1, 8]: 91 mg/kg
